Here are results for one compound from patent US10632324B2, “Method for the treatment of skin tissues” (9127-4910 Quebec Inc., priority 2017, dated 2020).

For the series, the system named is inflammatory acne. The series is described as follows: Randomized, controlled, rater-blinded split face/back trial of IR pre-treatment plus ALA-PDT vs ALA-PDT alone (Example 9). Format: in vivo, human. The note with it: for Change from Baseline in Lesion Counts, Closed comedones, Median / Change from Baseline in Lesion Counts, Nodules, Median / Change from Baseline in Lesion Counts, Open comedones, Median / Change from Baseline in Lesion Counts, Papules, Median / Change from Baseline in Lesion Counts, Pustules, Median / Change from Baseline in Lesion Counts, Total Noninflammatory lesions, Median: week 4; for Change from Baseline in Lesion Counts, Total Inflammatory lesions, Median: week 4 (reduction); for Clinical Global Severity Assessment at Week-4, Median: six-point scale, grade 0 clear to 5 very severe (Table 1). Here is the method: One side was pre-treated for 15 minutes with radiant IR light emitting diode (LED) (970 nm), while the other side was used as control. ALA was then applied after which PDT LED (630 nm) was performed on the entire face or back surface. Blinded lesion counts and clinical global assessment of severity were performed based on digital photographs before and four weeks after the PDT procedure.
Inclusion criteria included patients with skin type I to III according to the Fitzpatrick Classification System [^xxviii]. Exclusion criteria comprised patients taking cortisone (Prednisone), anticoagulant therapy, or any drug known to increase photosensitivity. In addition, during the 12 months preceding the study, patients were required not to have used isotretinoin (Accutane), or applied topical steroids on the site to be treated. Moreover, oral antibiotics use, laser or topical anti-acne medication at the to-be-treated site were not permitted for eight weeks prior to the study. Patients gave written informed consent to participate in this trial in compliance with the US Code of Federal Regulations dealing with the conduct of clinical studies (21 CFR including parts 50 and 56 concerning informed consent and IRB regulations). The study was conducted according to Good Clinical Practice Guidelines and the principles of the Declaration of Helsinki, and was approved by the Institutional Review Board Services (Div. 1373737 Toronto, Canada).
Patients were assigned to a split face or split back group to allow for within-patient assessments of clinical effects. Assignment was based on the patient's problem area. One side was randomly (using a coin flip) assigned to receive IR pre-treatment and ALA-PDT, and the other ALA-PDT alone to serve as control. The IR pre-treatment consisted of a 15 minute exposure to radiant IR LED at 970 nm ([…] using the LumiPhase-R/IR™, OPUSMED Inc. Montreal, Canada) to reach peak H2O absorption inside-out temperature of 45° C. Papillary dermis temperature was monitored with a needle probe throughout the session and up to 40 minutes (Type-T thermocouple, Omega, Montreal, Canada). ALA (20% Levulan Kerastick, DUSA Pharmaceuticals, USA) was then applied on both sides for 60 minutes, after which PDT with LED at 630 nm (50 mW/cm^2, 70 J/cm^2) was performed on the entire face or back surface for a duration of 23 minutes (LumiPhase-R/B™, OPUSMED Inc. Montreal, Canada). No cooling method was used. Digital photographs (Canon Dual Flash EOS 10D, Canon, Tokyo, Japan with EX SIGMA 50 mm 1:2.8 macro lens, Sigma, Aizu, Japan) were taken prior to and four weeks after the procedure. Each photograph was taken maintaining identical ambient lighting, pose and camera angles.
Acne lesion counts were performed before and four weeks after the PDT treatment. All types of inflammatory (papules, pustules, nodules) and noninflammatory (open and closed comedones) acne lesions were counted. Lesion counts were performed based on the digital photographs by two non-treating physicians who were blinded to the treatment regimen (IR-treated or control side) and to the timing of the photographs (baseline or post-treatment).
The global severity of acne was assessed at the end of the study by the […] non-treating physicians, as described above, using a six-point rating scale (Table 1). Clinical success was defined by grades 0 (clear) or 1 (almost clear).
Adverse reactions were monitored throughout the study. Signs of erythema, oedema, scaling/crusting, bronzing, textural changes, hyperpigmentation, and hypopigmentation were documented during the time period of the clinical trial.
Cronbach's alpha was calculated to assess inter-rater reliability in assessments. Reliability was deemed acceptable if Cronbach alpha was […] allowing raters' assessments to be combined for analysis. The primary outcome variable was the percent change from baseline in inflammatory lesion count measured four weeks post-treatment. […]

“And” between values parts separate entries of the source, which are not always exact repeats. Equal entries are not always repeated. “Also recorded” adds a separate entry of the source. Bounds are passed on as bounds.

For `NCC(=O)CCC(=O)O` [5-ALA, 5-aminolevulinic acid], under “Control side (ALA-PDT alone)”, the “Change from Baseline in Lesion Counts, Closed comedones, Median” value came out at 0.00%; the “Change from Baseline in Lesion Counts, Nodules, Median” value amounted to 20.00%; the “Change from Baseline in Lesion Counts, Open comedones, Median” value is given as 0.00%; the “Change from Baseline in Lesion Counts, Papules, Median” value was 38.10%. Further, for the setting “Control side (ALA-PDT alone)”, the “Change from Baseline in Lesion Counts, Pustules, Median” value came out at 0.00% and the “Change from Baseline in Lesion Counts, Total Noninflammatory lesions, Median” value came out at 0.00%. In addition, the “Change from Baseline in Lesion Counts, Total Inflammatory lesions, Median” value (Control side (ALA-PDT alone), listed as ALA) is 38% and 37.86%. Besides, the “Clinical Global Severity Assessment at Week-4, Median” value (Control side) worked out at 2. For the same compound, under “IR pre-treatment + ALA-PDT and ALA-PDT alone, listed as ALA”, the “treatment-related adverse effects / tolerability” value is given as “No unusual treatment-related adverse effects were observed; also recorded: overall well tolerated”. Further, where the note is “IR-Treated side”, the “Clinical Global Severity Assessment at Week-4, Median” value was found to be 1; the “Change from Baseline in Lesion Counts, Closed comedones, Median” value was determined as 0.00%; the “Change from Baseline in Lesion Counts, Nodules, Median” value is 100.00%; the “Change from Baseline in Lesion Counts, Open comedones, Median” value came to 0.00%. For the same compound, for the setting “IR-Treated side”, the “Change from Baseline in Lesion Counts, Papules, Median” value was 75.00%; the “Change from Baseline in Lesion Counts, Pustules, Median” value stood at 37.65%; the “Change from Baseline in Lesion Counts, Total Noninflammatory lesions, Median” value came out at 0.00%. Further, where the note is “IR-Treated side, listed as ALA”, the “Change from Baseline in Lesion Counts, Total Inflammatory lesions, Median” value is 73% and 73.21%. Further, the “clinical success rate (almost clear or clear categories)” value (IR-treated side, week-4) came to 78%. Where the note is “IR-treated vs control side, week-4”, the “additional benefit of IR-treated side in inflammatory lesion count reduction” value is 35%. The “clinical success rate (almost clear or clear categories)” value (control side, week-4) came out at 44%. For the same compound, the “time until slight erythema post-PDT disappeared” value (most patients) is not above 48 h. Moreover, where the note is “two patients”, the “duration of acneiform folliculitis” value was 3 to 4 days.
